Assay results as given in ChEMBL document CHEMBL4765419, “Design, synthesis and bioactivity evaluation of novel arylalkene-amide derivatives as dual-target antifungal inhibitors” (Eur J Med Chem, 2020).
Values belong to the compound of their own block, whether it stands above or below them. Active and inactive are the calls of the source. The rule behind the calls is not given here.

Experiments:
Candida albicans [1] = experiment: Antifungal activity against Candida albicans assessed as inhibition of microbial growth by two fold broth microdilution method; type: functional
Nakaseomyces glabratus = experiment: Antifungal activity against Candida glabrata assessed as inhibition of microbial growth by two fold broth microdilution method; type: functional
Aspergillus fumigatus = experiment: Antifungal activity against Aspergillus fumigatus assessed as inhibition of microbial growth by two fold broth microdilution method; type: functional
Candida tropicalis = experiment: Antifungal activity against Candida tropicalis assessed as inhibition of microbial growth by two fold broth microdilution method; type: functional
Pichia kudriavzevii = experiment: Antifungal activity against Candida krusei assessed as inhibition of microbial growth by two fold broth microdilution method; type: functional
Candida albicans [2] = experiment: Antifungal activity against Candida albicans ATCC SC5314 assessed as decrease in fungal cell density by polarizing microscopy; type: functional, organism-based
Candida albicans [3] = experiment: Antifungal activity against fluconazole-resistant Candida albicans 904 assessed as inhibition of microbial growth by two fold broth microdilution method; type: functional
Candida albicans [4] = experiment: Antifungal activity against fluconazole-resistant Candida albicans CaR assessed as inhibition of microbial growth by two fold broth microdilution method; type: functional
Candida albicans [5] = experiment: Antifungal activity against fluconazole-resistant Candida albicans 632 assessed as inhibition of microbial growth by two fold broth microdilution method; type: functional
Candida albicans [6] = experiment: Antifungal activity against fluconazole-resistant Candida albicans 901 assessed as inhibition of microbial growth by two fold broth microdilution method; type: functional
Candida albicans [7] = experiment: Antifungal activity against fluconazole-resistant Candida albicans 17# assessed as inhibition of microbial growth by two fold broth microdilution method; type: functional
Candida albicans SC5314 [8] = experiment: Inhibition of SE/CYP51 in Candida albicans ATCC SC5314 assessed as ergosterol level at 4 ug/ml incubated for 16 hrs by LC/MS analysis (reference value: 79.43 %); design: scale not given: the % may be the effect or the level left; details: dose 4.0 µg/ml
[9] = Hepatotoxicity in mouse infected with Candida albicans assessed as effect on alanine aminotransferase level in plasma administered via abdomen for 7 days (reference value: 102 +/-9.2 IU/L); type: toxicity; details: ip, 168 h, time 7 day
Candida albicans [10] = experiment: In vivo antifungal activity against Candida albicans infected in mouse assessed as disappearance of cell nuclear aggregation injected via abdomen for 7 days by H and E staining based histological analysis; type: functional, organism-based; details: time 7.0 day
[11] = Toxicity in mouse infected with Candida albicans assessed as change in spleen morphology administered via abdomen for 7 days by H and E staining based histological analysis; details: in vivo, ip, 168 h, time 7 day
[12] = Hepatotoxicity in mouse infected with Candida albicans assessed as aspartate aminotransferase level in plasma administered via abdomen for 7 days (reference value: 109.4 +/-4.8 IU/L); type: toxicity; details: ip, 168 h, time 7 day
Candida albicans [13] = experiment: In vivo antifungal activity against Candida albicans infected in mouse assessed as reduction in tissue infection injected via abdomen for 7 days by H and E staining based histological analysis; type: functional, organism-based; details: time 7.0 day
[14] = Stability in human plasma incubated for 60 mins; type: ADME, cell-free; details: read-out: Stabilty
Candida albicans [15] = experiment: In vivo antifungal activity against Candida albicans infected in mouse assessed as disappearance of infected positions injected via abdomen for 7 days by H and E staining based histological analysis; type: functional, organism-based; details: time 7.0 day
Candida albicans [16] = experiment: Antifungal activity against Candida albicans ATCC SC5314 assessed as edema cavitation at 4 ug/ml incubated for 72 hrs by TEM analysis; type: functional, organism-based; details: dose 4.0 µg/ml
[17] = Toxicity in mouse infected with Candida albicans assessed as change in liver morphology administered via abdomen for 7 days by H and E staining based histological analysis; details: in vivo, ip, 168 h, time 7 day
[18] = Toxicity in mouse infected with Candida albicans assessed as change in lung morphology administered via abdomen for 7 days by H and E staining based histological analysis; details: in vivo, ip, 168 h, time 7 day
Candida albicans [19] = experiment: Antifungal activity against Candida albicans ATCC SC5314 assessed as vesicles formation at 4 ug/ml incubated for 72 hrs by TEM analysis; type: functional, organism-based; details: dose 4.0 µg/ml
Candida albicans SC5314 [20] = experiment: Inhibition of SE/CYP51 in Candida albicans ATCC SC5314 assessed as eburicol level at 4 ug/ml incubated for 16 hrs by LC/MS analysis (reference value: 4.67 %); design: scale not given: the % may be the effect or the level left; details: dose 4.0 µg/ml
Candida albicans [21] = experiment: Antifungal activity against Candida albicans ATCC SC5314 assessed as cell lysis at 4 ug/ml […] by TEM analysis; type: functional, organism-based; details: dose 4.0 µg/ml
Candida albicans [22] = experiment: Antifungal activity against Candida albicans ATCC SC5314 assessed as loss of cell permeability at 4 ug/ml incubated for 72 hrs by TEM analysis; type: functional, organism-based; details: dose 4.0 µg/ml
Candida albicans [23] = experiment: Antifungal activity against Candida albicans ATCC SC5314 assessed as irregular cell structure at 4 ug/ml incubated for 72 hrs by TEM analysis; type: functional, organism-based; details: dose 4.0 µg/ml
Candida albicans [24] = experiment: Antifungal activity against Candida albicans ATCC SC5314 assessed as leakage of endogenous substances at 4 ug/ml incubated for 72 hrs by TEM analysis; type: functional, organism-based; details: dose 4.0 µg/ml
Candida albicans [25] = experiment: In vivo antifungal activity against Candida albicans infected in mouse assessed as uniform cell distribution injected via abdomen for 7 days by H and E staining based histological analysis; type: functional, organism-based; details: time 7.0 day
[26] = Stability in human plasma incubated for 120 mins; type: ADME, cell-free; details: read-out: Stabilty
[27] = Toxicity in mouse infected with Candida albicans assessed as change in heart morphology administered via abdomen for 7 days by H and E staining based histological analysis; details: in vivo, ip, 168 h, time 7 day
[28] = Toxicity in mouse infected with Candida albicans assessed as change in body weight administered via abdomen for 7 days; details: in vivo, ip, 168 h, time 7 day
[29] = Renal toxicity in mouse infected with Candida albicans assessed as effect on blood urea nitrogen level administered via abdomen for 7 days (reference value: 6.7 +/-0.3 mmol/L); details: in vivo, ip, 168 h, time 7 day
Candida albicans SC5314 [30] = experiment: Inhibition of SE/CYP51 in Candida albicans ATCC SC5314 assessed as unidentified sterol level at 4 ug/ml incubated for 16 hrs by LC/MS analysis (reference value: 7.03 %); design: scale not given: the % may be the effect or the level left; details: dose 4.0 µg/ml
Candida albicans [31] = experiment: Antifungal activity against Candida albicans ATCC SC5314 assessed as disappearance of fungal cell boundaries at 4 ug/ml incubated for 72 hrs by TEM analysis; type: functional, organism-based; details: dose 4.0 µg/ml
Candida albicans [32] = experiment: Antifungal activity against Candida albicans ATCC SC5314 assessed as nuclear membrane cleavage at 4 ug/ml incubated for 72 hrs by TEM analysis; type: functional, organism-based; details: dose 4.0 µg/ml
[33] = Toxicity in mouse infected with Candida albicans assessed as change in kidney morphology administered via abdomen for 7 days by H and E staining based histological analysis; details: in vivo, ip, 168 h, time 7 day
Candida albicans SC5314 [34] = experiment: Inhibition of SE/CYP51 in Candida albicans ATCC SC5314 assessed as lanosterol level at 4 ug/ml incubated for 16 hrs by LC/MS analysis (reference value: 6.62 %); design: scale not given: the % may be the effect or the level left; details: dose 4.0 µg/ml
Candida albicans SC5314 [35] = experiment: Inhibition of SE/CYP51 in Candida albicans ATCC SC5314 assessed as squalene level at 4 ug/ml incubated for 16 hrs by LC/MS analysis (reference value: 2.25 %); design: scale not given: the % may be the effect or the level left; details: dose 4.0 µg/ml

Structure (SMILES): CN(C/C=C/c1ccccc1)Cc1cccc2ccccc12 [NAFTIFINE]
MIC (Candida albicans [1]): 0.5 µg/mL
Activity (Candida albicans [2]): Active
MIC (Candida albicans [3]): 8 µg/mL
MIC (Candida albicans [4]): > 16 µg/mL
MIC (Nakaseomyces glabratus): 1 µg/mL
MIC (Candida albicans [5]): 8 µg/mL
MIC (Candida albicans [6]): > 16 µg/mL
MIC (Candida albicans [7]): 8 µg/mL
MIC (Aspergillus fumigatus): 4 µg/mL
MIC (Candida tropicalis): 2 µg/mL
MIC (Pichia kudriavzevii): 0.5 µg/mL

Structure (SMILES): O=C(NCc1ccncc1)C(=O)N/N=C/c1cccc2ccccc12
Activity (Candida albicans SC5314 [8]): 8.27%
Activity [9]: 117 IU/L
Activity (Candida albicans [10]): Active
Activity [11]: Non-Toxic
Activity [12]: 112.7 IU/L
Activity (Candida albicans [13]): Active
remaining at 1 h [14]: 92.3%
Activity (Candida albicans [15]): Active
MIC (Candida albicans [1]): 0.125 µg/mL
Activity (Candida albicans [2]): Active
Activity (Candida albicans [16]): Active
Activity [17]: Non-Toxic
MIC (Candida albicans [3]): 8 µg/mL
MIC (Candida albicans [4]): 4 µg/mL
Activity [18]: Non-Toxic
Activity (Candida albicans [19]): Active
MIC (Nakaseomyces glabratus): 0.25 µg/mL
MIC (Candida albicans [5]): 8 µg/mL
Activity (Candida albicans SC5314 [20]): 32.8%
Activity (Candida albicans [21]): Active
MIC (Candida albicans [6]): 4 µg/mL
MIC (Candida albicans [7]): 4 µg/mL
MIC (Aspergillus fumigatus): 2 µg/mL
Activity (Candida albicans [22]): Active
Activity (Candida albicans [23]): Active
Activity (Candida albicans [24]): Active
MIC (Candida tropicalis): 0.125 µg/mL
Activity (Candida albicans [25]): Active
remaining at 2 h [26]: 86.5%
Activity [27]: Non-Toxic
MIC (Pichia kudriavzevii): 0.5 µg/mL
Activity [28]: Non-Toxic
Activity [29]: 7.1 mmol/L
Activity (Candida albicans SC5314 [30]): 4.71%
Activity (Candida albicans [31]): Active
Activity (Candida albicans [32]): Active
Activity [33]: Non-Toxic
Activity (Candida albicans SC5314 [34]): 11.3%
Activity (Candida albicans SC5314 [35]): 42.9%

Structure (SMILES): O=C(/C=C/c1ccc2c(c1)OCCO2)NCC(=O)NCc1cccnc1
MIC (Candida albicans [1]): 2 µg/mL
MIC (Nakaseomyces glabratus): 4 µg/mL
MIC (Aspergillus fumigatus): > 16 µg/mL
MIC (Candida tropicalis): 2 µg/mL
MIC (Pichia kudriavzevii): 4 µg/mL

Structure (SMILES): O=C(NCc1cccnc1)C(=O)N/N=C/c1cccc2ccccc12
MIC (Candida albicans [1]): 0.5 µg/mL
MIC (Nakaseomyces glabratus): 0.5 µg/mL
MIC (Aspergillus fumigatus): > 16 µg/mL
MIC (Candida tropicalis): 0.5 µg/mL
MIC (Pichia kudriavzevii): 0.25 µg/mL

Structure (SMILES): O=C(NCc1cccnc1)C(=O)N/N=C/c1ccc2c(c1)OCCO2
MIC (Candida albicans [1]): 0.5 µg/mL
MIC (Nakaseomyces glabratus): 0.5 µg/mL
MIC (Aspergillus fumigatus): > 16 µg/mL
MIC (Candida tropicalis): 1 µg/mL
MIC (Pichia kudriavzevii): 2 µg/mL

Structure (SMILES): O=C(/C=C/c1ccc2ccccc2c1)NC(Cn1ccnc1)C(=O)Nc1ccccc1 (stereo not given)
MIC (Candida albicans [1]): 0.5 µg/mL
MIC (Nakaseomyces glabratus): 0.25 µg/mL
MIC (Aspergillus fumigatus): 8 µg/mL
MIC (Candida tropicalis): 0.5 µg/mL
MIC (Pichia kudriavzevii): 0.5 µg/mL

Other lines, results leading:

MIC (Candida albicans [1]): 0.25 µg/mL
MIC (Nakaseomyces glabratus): 0.5 µg/mL
MIC (Aspergillus fumigatus): > 16 µg/mL
MIC (Candida tropicalis): 0.25 µg/mL
MIC (Pichia kudriavzevii): 1 µg/mL
Structure (SMILES): O=C(/C=C/c1ccc2ccccc2c1)NCC(=O)NCc1ccncc1

MIC (Candida albicans [1]): 0.5 µg/mL
MIC (Nakaseomyces glabratus): 1 µg/mL
MIC (Aspergillus fumigatus): 8 µg/mL
MIC (Candida tropicalis): 1 µg/mL
MIC (Pichia kudriavzevii): 0.5 µg/mL
Structure (SMILES): O=C(NCc1ccncc1)C(=O)N/N=C/c1ccc2c(c1)OCCO2

MIC (Candida albicans [1]): 0.5 µg/mL
MIC (Nakaseomyces glabratus): 0.5 µg/mL
MIC (Aspergillus fumigatus): > 16 µg/mL
MIC (Candida tropicalis): 0.5 µg/mL
MIC (Pichia kudriavzevii): 2 µg/mL
Structure (SMILES): O=C(/C=C/c1cccc2ccccc12)NC(Cn1ccnc1)C(=O)NCc1ccccc1 (stereo not given)

MIC (Candida albicans [1]): 0.5 µg/mL
MIC (Nakaseomyces glabratus): 0.5 µg/mL
MIC (Aspergillus fumigatus): > 16 µg/mL
MIC (Candida tropicalis): 1 µg/mL
MIC (Pichia kudriavzevii): 0.5 µg/mL
Structure (SMILES): O=C(/C=C/c1ccc2c(c1)OCCO2)NCC(=O)NCc1ccncc1

MIC (Candida albicans [1]): 0.5 µg/mL
MIC (Nakaseomyces glabratus): 1 µg/mL
MIC (Aspergillus fumigatus): 8 µg/mL
MIC (Candida tropicalis): 0.5 µg/mL
MIC (Pichia kudriavzevii): 1 µg/mL
Structure (SMILES): O=C(/C=C/c1cccc2ccccc12)NCC(=O)NCc1cccnc1

MIC (Candida albicans [1]): 0.5 µg/mL
MIC (Nakaseomyces glabratus): 0.5 µg/mL
MIC (Aspergillus fumigatus): > 16 µg/mL
MIC (Candida tropicalis): 0.5 µg/mL
MIC (Pichia kudriavzevii): 0.25 µg/mL
Structure (SMILES): CN(CC(=O)NCc1cccnc1)C(=O)/C=C/c1cccc2ccccc12

MIC (Candida albicans [1]): 0.25 µg/mL
MIC (Nakaseomyces glabratus): 0.5 µg/mL
MIC (Aspergillus fumigatus): > 16 µg/mL
MIC (Candida tropicalis): 0.25 µg/mL
MIC (Pichia kudriavzevii): 1 µg/mL
Structure (SMILES): O=C(/C=C/c1ccc2c(c1)OCCO2)NC(Cn1ccnc1)C(=O)Nc1ccccc1 (stereo not given)
